This passage reports EC50 results from patent US20260209234A1, “SUBSTITUTED DIHYDROPYRROLO[3,4-D]PYRIMIDINE COMPOUNDS AND THEIR USE IN TREATING MEDICAL CONDITIONS” (Karuna Therapeutics, Inc., priority 2022, published 2026).

Structures are written as SMILES.

Test [1] concerns the target T1, human M4 receptor (Homo sapiens, UniProt P08173).
T1 construct: expressed in transfected cells
T1 sequence (P08173 1-479): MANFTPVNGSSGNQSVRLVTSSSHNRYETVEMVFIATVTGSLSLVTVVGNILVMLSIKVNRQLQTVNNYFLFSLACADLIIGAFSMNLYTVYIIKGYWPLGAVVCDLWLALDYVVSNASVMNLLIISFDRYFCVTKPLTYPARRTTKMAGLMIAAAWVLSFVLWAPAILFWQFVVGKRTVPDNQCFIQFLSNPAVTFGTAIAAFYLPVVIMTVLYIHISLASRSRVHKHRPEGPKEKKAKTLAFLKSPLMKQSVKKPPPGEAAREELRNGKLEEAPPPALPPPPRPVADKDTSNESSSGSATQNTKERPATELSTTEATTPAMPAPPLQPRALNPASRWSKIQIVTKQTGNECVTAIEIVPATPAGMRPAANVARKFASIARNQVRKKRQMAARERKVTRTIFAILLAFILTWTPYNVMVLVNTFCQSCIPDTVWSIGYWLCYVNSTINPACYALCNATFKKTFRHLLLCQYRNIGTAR
Nature of the test: M4 GTPγS PAM assay. The following applies: membranes of CHO-K1 cells stably expressing human M4; EC20 acetylcholine 40 nM; 35S-GTP. Format: biochemical. An outline of the steps:
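CHO-K1 membranes stably expressing human M4, preincubated with compound and 0.1 μM GDP (final) in 20 mM HEPES, 10 mM MgCl2, 100 mM NaCl, pH 7.4, then EC20 acetylcholine (40 nM final). 35S-GTPγS binding 1 h at room temperature, filtration and scintillation counting.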

Test [2] addresses T2, hM4 receptors (Homo sapiens, UniProt P08173).
T2 construct: expressed in transfected cells; host or cells: CHO cells
T2 sequence (P08173 1-479): T1 sequence (P08173 1-479)
Nature of the test: Human M4 PAM pERK assay. The following applies: CHO cells expressing hM4; EC20 of acetylcholine (10 nM final); TR-FRET. Format: cell-based. In general terms: TR-FRET usually uses a lanthanide donor and a delayed reading to cut background.

For the molecule `COc1nc(C#N)nc2c1C(C)N(C(=O)CC1CN(c3ccnc(C(F)(F)F)c3)C1)C2` (single isomer, unassigned) [Compound I-6, 4-Methoxy-5-methyl-6-(2-(1-(2-(trifluoromethyl)pyridin-4-yl)azetidin-3-yl)acetyl)-6,7-dihydro-5H-pyrrolo[3,4-d]pyrimidine-2-carbonitrile], the EC50 in test [1] and in test [2] was ≤ 100 nM each time.

As to `COc1nc(C)nc2c1C(C)N(C(=O)CC1CN(c3ccnc(C(F)(F)F)c3)C1)C2` (single isomer, unassigned) [Compound I-52, 1-(4-Methoxy-2,5-dimethyl-5,7-dihydro-6H-pyrrolo[3,4-d]pyrimidin-6-yl)-2-(1-(2-(trifluoromethyl)pyridin-4-yl)azetidin-3-yl)ethan-1-one], the EC50 in test [1] is ≤ 100 nM; in test [2], 100 to 500 nM.

In general, EC50 refers to the concentration at which the effect is half-maximal. High values mean weaker potency, low ones greater potency.
